For one data set, the target named is HCMV DNA pol (Human cytomegalovirus, UniProt P08546). The data set can be described thus: HCMV DNA polymerase activity, calf thymus DNA as template primer. Type of data set: biochemical. The settings on record: [3H]dTTP incorporation, all four dNTPs. How it is done:
(§1) The HCMV and HSV-1 DNA polymerase activity was measured in the presence of calf thymus DNA as template primer, and all four dNTPs as the nucleotide substrates of which dTTP was tritiated.

For a further data set, the target named is T1, HIV-1 RT (Human immunodeficiency virus type 1 group M subtype B, UniProt P04585).
T1 construct: HIV-1 RT Assays in the Presence of Artificial Template/Primer
The data set can be described thus: HIV-1 RT assay in the presence of artificial template/primer. Type of data set: biochemical. How it is done: HIV-1 RT Assays in the Presence of Artificial Template/Primer
To prepare the template/primers for the RT experiments, 0.15 mM poly(U), poly(A), and poly(I) were mixed with an equal volume of 0.0375 mM oligo(dA), oligo(dT), and oligo(dC), respectively. The final concentrations of the templates in the RT reaction mixture were 0.015 mM. The reaction mixture (50 μl) contained 50 mM Tris.HCl (pH 7.8), 5 mM dithiothreitol, 300 mM glutathione, 500 μM EDTA, 150 mM KCl, 5 mM MgCl2, 1.25 μg of bovine serum albumin, an appropriate concentration of labeled (tritiated) substrate dTTP, dCTP, or dATP (2 μCi/assay), a fixed concentration of the template/primer poly(A).oligo(dT) (0.015 mM), poly(I).oligo(dC) (0.015 mM), and poly(U).oligo(dA) (0.015 mM), 0.06% Triton X-100, 10 μl of inhibitor solution (containing various concentrations of the compounds), and 1 μl of the RT preparation. The reaction mixtures were incubated at 37° C. for 30 min, at which time 100 μl of yeast RNA (1 mg/ml) and 1 ml of Na4P2O7 (0.02 M) in trichloroacetic acid (5% v/v) were added. The solutions were kept on ice for 30 min, after which the acid-insoluble material was washed and analyzed for radioactivity.

In another data set the target is HSV-1 DNA pol (Human herpesvirus 1, UniProt P04293). The data set can be described thus: HSV-1 DNA polymerase activity, calf thymus DNA as template primer. The data set is classed as biochemical. The settings on record: [3H]dTTP incorporation, all four dNTPs. The procedure: as §1
HSV-1 DNA pol, sequence (P04293 whole entry): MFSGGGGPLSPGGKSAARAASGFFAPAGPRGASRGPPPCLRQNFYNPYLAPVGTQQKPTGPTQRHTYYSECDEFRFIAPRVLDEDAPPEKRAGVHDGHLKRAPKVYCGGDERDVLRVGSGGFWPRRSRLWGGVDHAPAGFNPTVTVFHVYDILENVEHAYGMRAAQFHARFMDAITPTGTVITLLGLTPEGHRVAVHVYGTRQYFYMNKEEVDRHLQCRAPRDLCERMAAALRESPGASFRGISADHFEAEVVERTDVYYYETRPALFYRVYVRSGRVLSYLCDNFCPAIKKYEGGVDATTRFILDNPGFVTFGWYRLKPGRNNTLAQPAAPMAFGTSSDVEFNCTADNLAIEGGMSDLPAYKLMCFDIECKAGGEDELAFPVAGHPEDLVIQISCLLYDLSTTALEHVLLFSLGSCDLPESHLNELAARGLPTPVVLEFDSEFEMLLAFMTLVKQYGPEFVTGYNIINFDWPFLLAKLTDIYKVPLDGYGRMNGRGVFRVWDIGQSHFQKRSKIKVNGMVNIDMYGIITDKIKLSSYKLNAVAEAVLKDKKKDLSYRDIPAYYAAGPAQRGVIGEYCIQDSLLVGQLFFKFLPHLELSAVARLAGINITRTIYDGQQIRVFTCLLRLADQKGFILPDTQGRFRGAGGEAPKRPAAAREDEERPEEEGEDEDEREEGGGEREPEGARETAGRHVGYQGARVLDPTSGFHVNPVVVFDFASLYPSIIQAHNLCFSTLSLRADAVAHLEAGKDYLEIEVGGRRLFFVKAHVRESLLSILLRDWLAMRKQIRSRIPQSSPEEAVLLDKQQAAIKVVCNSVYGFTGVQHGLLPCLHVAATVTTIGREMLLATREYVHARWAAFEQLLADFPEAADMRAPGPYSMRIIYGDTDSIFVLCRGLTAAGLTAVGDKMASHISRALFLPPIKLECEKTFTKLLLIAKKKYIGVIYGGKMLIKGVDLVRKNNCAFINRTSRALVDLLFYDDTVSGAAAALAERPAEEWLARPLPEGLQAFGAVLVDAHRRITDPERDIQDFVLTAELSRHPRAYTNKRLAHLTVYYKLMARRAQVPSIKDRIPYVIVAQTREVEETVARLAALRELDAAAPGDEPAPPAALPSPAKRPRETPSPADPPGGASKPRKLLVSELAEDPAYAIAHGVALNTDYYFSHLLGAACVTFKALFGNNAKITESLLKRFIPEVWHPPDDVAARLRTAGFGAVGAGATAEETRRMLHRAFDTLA
Setting [1] is: values marked *: in poly rA.dT/dTTP RT assay, read-out: IC50 HIV-1 RT.

Results on 20 molecules are retold here after patent publication US10167302B2, “Phosphonate nucleosides useful in the treatment of viral diseases” (University College Cork, priority 2014, dated 2019).

Read-outs that look alike come from different tables or passages of the source.

HCMV DNA pol, sequence (P08546 whole entry): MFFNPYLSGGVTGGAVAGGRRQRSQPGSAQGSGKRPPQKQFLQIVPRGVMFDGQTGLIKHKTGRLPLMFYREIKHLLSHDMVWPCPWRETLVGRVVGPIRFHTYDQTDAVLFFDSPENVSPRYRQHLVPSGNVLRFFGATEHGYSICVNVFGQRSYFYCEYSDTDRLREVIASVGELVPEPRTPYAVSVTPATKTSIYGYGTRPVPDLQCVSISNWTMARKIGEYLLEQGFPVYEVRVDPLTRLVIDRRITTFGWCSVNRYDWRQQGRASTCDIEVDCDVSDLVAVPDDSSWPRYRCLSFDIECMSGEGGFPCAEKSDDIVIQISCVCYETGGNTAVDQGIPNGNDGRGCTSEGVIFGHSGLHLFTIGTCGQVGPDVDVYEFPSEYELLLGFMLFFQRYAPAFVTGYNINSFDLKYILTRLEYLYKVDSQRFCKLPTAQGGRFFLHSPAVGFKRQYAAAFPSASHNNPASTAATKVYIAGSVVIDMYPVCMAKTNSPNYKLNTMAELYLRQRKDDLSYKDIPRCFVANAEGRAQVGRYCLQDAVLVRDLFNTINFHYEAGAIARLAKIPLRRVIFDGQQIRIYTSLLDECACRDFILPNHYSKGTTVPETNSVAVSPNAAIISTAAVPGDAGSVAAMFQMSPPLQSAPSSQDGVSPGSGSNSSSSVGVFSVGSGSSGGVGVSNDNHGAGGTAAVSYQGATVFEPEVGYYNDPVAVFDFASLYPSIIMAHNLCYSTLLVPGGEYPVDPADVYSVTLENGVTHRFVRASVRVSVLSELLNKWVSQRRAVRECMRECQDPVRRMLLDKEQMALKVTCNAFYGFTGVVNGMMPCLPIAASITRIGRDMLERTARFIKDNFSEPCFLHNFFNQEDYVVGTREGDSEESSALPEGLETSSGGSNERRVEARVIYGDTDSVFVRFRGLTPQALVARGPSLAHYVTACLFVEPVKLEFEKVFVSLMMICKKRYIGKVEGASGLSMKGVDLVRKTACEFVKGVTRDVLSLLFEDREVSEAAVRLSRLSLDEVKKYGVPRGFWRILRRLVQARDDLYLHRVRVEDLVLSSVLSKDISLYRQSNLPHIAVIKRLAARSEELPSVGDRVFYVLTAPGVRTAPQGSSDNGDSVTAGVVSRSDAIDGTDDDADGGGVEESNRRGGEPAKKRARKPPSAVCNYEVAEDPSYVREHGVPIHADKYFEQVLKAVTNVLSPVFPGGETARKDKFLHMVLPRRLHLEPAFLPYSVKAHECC

`Cc1cn(C[C@@H](O)[C@@H](O)COC(C(=O)O)P(=O)(O)O)c(=O)[nH]c1=O` (stereo partly drawn) [JJ-379] gave a melting point of 199 to 201 °C.
On to `Cc1cn(C[C@H]2CCC[C@H]2COC(C(=O)O)P(=O)(O)O)c(=O)[nH]c1=O` (stereo partly drawn) [Compound 13d], for which the concentration for half-maximal inhibition (IC50) against HCMV DNA pol is 40 ± 25 µM; at HIV-1 RT, at least 500 µM; on HSV-1 DNA pol, 34 µM.
For the molecule `Cc1cn(C/C=C\COC(C(=O)O)P(=O)(O)O)c(=O)[nH]c1=O` (stereo not drawn) [Compound 13a, cis-2-(4-(2,4-Dioxo-5-methyl-pyrimidin-1-yl)but-2-enyloxy)-2-phosphonoacetic acid], the IC50 worked out at 2.1 ± 0.6 µM against HCMV DNA pol, 235 ± 16 µM at HIV-1 RT and 20 µM against HSV-1 DNA pol.
Regarding `Cc1cn(C[C@H]2CC=CC[C@H]2COC(C(=O)O)P(=O)(O)O)c(=O)[nH]c1=O` (stereo partly drawn) [Compound 13e], the figures for the IC50 at HCMV DNA pol, on HIV-1 RT and against HSV-1 DNA pol were 3 ± 0.5 µM, 425 ± 106 µM and 16 µM, respectively.
Take `Cc1cn(CC(C)OC(C(=O)O)P(=O)(O)O)c(=O)[nH]c1=O` (stereo not drawn) [Compound 8b, 2-((1-(5-Methyl-2,4-dioxo-3,4-dihydropyrimidin-1(2H)-yl)propan-2-yl)oxy)-2-phosphonoacetic acid]: the half-inhibitory concentration (IC50) against HCMV DNA pol was 111 ± 24 µM; on HIV-1 RT, 18 µM; at HSV-1 DNA pol, 12 µM.
Turning to `O=C(O)C(OCCCCn1cc(F)c(=O)[nH]c1=O)P(=O)(O)O` (stereo not drawn) [Compound 13l, 2-(4-(5-fluoro-2,4-dioxo-3,4-dihydropyrimidin-1(2H)-yl)butoxy)-2-phosphonoacetic acid], the concentration for half-maximal inhibition (IC50) on HIV-1 RT (setting [1]) came out at 214 µM.
On to `Cc1cn(CCOC(C(=O)O)P(=O)(O)O)c(=O)[nH]c1=O` (stereo not drawn) [Compound 8a, 2-(2-(5-Methyl-2,4-dioxo-3,4-dihydropyrimidin-1(2H)-yl)ethoxy)-2-phosphonoacetic acid], for which the 50% inhibitory concentration (IC50) came out at 161 ± 8 µM against HCMV DNA pol, 17 µM on HIV-1 RT and 19 µM on HSV-1 DNA pol.
In the case of `Cc1cn(C[C@H]2CCCC[C@H]2COC(C(=O)O)P(=O)(O)O)c(=O)[nH]c1=O` (stereo partly drawn) [Compound 13i], the concentration for half-maximal inhibition (IC50) against HCMV DNA pol was 4 µM; at HIV-1 RT, at least 500 µM; at HSV-1 DNA pol, 13 µM.
In the case of `Nc1ccn(C/C=C\COC(C(=O)O)P(=O)(O)O)c(=O)n1` (stereo not drawn) [Compound 13o, 2-Cis-(4-(4-amino-2-oxopyrimidin-1(2H)-yl)but-2-enyloxy)-2-phosphonoacetic acid], the IC50 at HIV-1 RT (setting [1]) amounted to 246 µM.
As to `Cc1cn(Cc2cn(CCOC(C(=O)O)P(=O)(O)O)nn2)c(=O)[nH]c1=O` (stereo not drawn) [JJ-210, 2-(2-(4-((5-methyl-2,4-dioxo-3,4-dihydropyrimidin-1(2H)-yl)methyl)-1H-1,2,3-triazol-1-yl)ethoxy)-2-phosphonoacetic acid], the melting point fell in the range of 189 to 191 °C.
`Cc1cn(CCCCOC(C(=O)O)P(=O)(O)O)c(=O)[nH]c1=O` (stereo not drawn) [Compound 13h, 2-(4-(2,4-Dioxo-5-methyl-pyrimidin-1-yl)butyloxy)-2-phosphonoacetic acid]: the figures for the IC50 against HCMV DNA pol, at HIV-1 RT and on HSV-1 DNA pol were 29 ± 3 µM, 145 ± 106 µM and 56 µM, respectively.
On to `Nc1nc(Cl)c2ncn(C/C=C\COC(C(=O)O)P(=O)(O)O)c2n1` (stereo not drawn) [Compound 13n, 2-Cis-(4-(2-amino-6-chloro-9H-purin-9-yl)but-2-enyloxy)-2-phosphonoacetic acid], for which the IC50 at HIV-1 RT (setting [1]) is at least 500 µM.
Turning to `Cc1cn(C(C)COC(C(=O)O)P(=O)(O)O)c(=O)[nH]c1=O` (stereo not drawn) [Compound 8c, 2-(2-(5-Methyl-2,4-dioxo-3,4-dihydropyrimidin-1(2H)-yl)propoxy)-2-phosphonoacetic acid], the concentration for half-maximal inhibition (IC50) at HCMV DNA pol was above 200 µM; on HIV-1 RT, 133 ± 16 µM; on HSV-1 DNA pol, 16 µM.
Regarding `Cc1cn(C[C@H]2C[C@H]2COC(C(=O)O)P(=O)(O)O)c(=O)[nH]c1=O` (stereo partly drawn) [Compound 13c], the IC50 at HCMV DNA pol stood at 4.6 ± 0.2 µM; at HIV-1 RT it was 440 ± 85 µM; at HSV-1 DNA pol, 35 µM.
In the case of `Cc1cn(Cc2ccccc2COC(C(=O)O)P(=O)(O)O)c(=O)[nH]c1=O` (stereo not drawn) [Compound 13g, 2-(2-((2,4-Dioxo-5-methyl-pyrimidin-1-yl)methyl)benzyloxy)-2-phosphonoacetic acid], the concentration for half-maximal inhibition (IC50) at HCMV DNA pol came out at 13 ± 4 µM; at HIV-1 RT, 131 ± 86 µM; on HSV-1 DNA pol, 11 µM.
Taken in the same sequence, the figures for `Cc1cn(C[C@H]2C3C=CC(C3)[C@H]2COC(C(=O)O)P(=O)(O)O)c(=O)[nH]c1=O` (stereo partly drawn) [Compound 13f] were 14 ± 2 µM, 340 ± 139 µM and 32 µM.
In the case of `Cc1cn(CC#CCOC(C(=O)O)P(=O)(O)O)c(=O)[nH]c1=O` (stereo not drawn) [Compound 13b, 2-(4-(2,4-Dioxo-5-methyl-pyrimidin-1-yl)but-2-ynyloxy)-2-phosphonoacetic acid], the IC50 against HCMV DNA pol and on HIV-1 RT was above 500 µM throughout.
For `Nc1ncnc2c1ncn2C/C=C\COC(C(=O)O)P(=O)(O)O` (stereo not drawn) [Compound 13m, 2-Cis-(4-(6-amino-9H-purin-9-yl)but-2-enyloxy)-2-phosphonoacetic acid], the concentration for half-maximal inhibition (IC50) at HIV-1 RT (setting [1]) amounted to 426 µM.
As to `O=C(O)C(OC/C=C\Cn1cc(F)c(=O)[nH]c1=O)P(=O)(O)O` (stereo not drawn) [Compound 13k, 2-Cis-(4-(5-fluoro-2,4-dioxo-3,4-dihydropyrimidin-1(2H)-yl)but-2-enyloxy)-2-phosphonoacetic acid], the 50% inhibitory concentration (IC50) at HIV-1 RT (setting [1]) was above 500 µM.
`COC(=O)C(OC[C@@H]1CCCC[C@@H]1Cn1cc(C)c(=O)[nH]c1=O)P(=O)(O)O` (stereo partly drawn) [Compound 13j]: the half-inhibitory concentration (IC50) is 16 ± 3 µM against HCMV DNA pol, at least 500 µM at HIV-1 RT and 43 µM against HSV-1 DNA pol.
